# Data: patent US12110293B2, “Substituted triazolo quinoxaline derivatives” (GRÜNENTHAL GMBH, priority 2018, dated 2024)
# Target: T1, glucocorticoid receptor (Homo sapiens, UniProt P04150)
# T1 construct: expressed in transfected cells
# T1 sequence (P04150 524-758 limits assumed): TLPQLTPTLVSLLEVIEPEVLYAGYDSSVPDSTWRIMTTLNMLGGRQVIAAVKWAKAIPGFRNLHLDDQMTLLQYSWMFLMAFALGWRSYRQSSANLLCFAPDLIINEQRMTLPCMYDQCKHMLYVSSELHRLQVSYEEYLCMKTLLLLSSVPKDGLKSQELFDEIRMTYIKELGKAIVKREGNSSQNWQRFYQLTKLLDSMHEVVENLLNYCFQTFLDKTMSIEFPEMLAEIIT
# Experiment: Agonistic mode of action on the glucocorticoid receptor (CHO-Gal4/GR luciferase reporter cell line)
# Type: cell-based
# Conditions: range class observed in the agonistic assay or the antagonistic assay (CHO-Gal4/GR reporter cells); table does not say which mode applies per example
# Outline: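 Agonism measured as dose-dependent luciferase luminescence (FLIPR Tetra) from a GAL4-UAS reporter driven by GAL4 DBD fused to GR ligand-binding domain in stable CHO cells. Eight half-log doses, 10 μM to 0.003 μM final in 0.5% DMSO, quadruplicate, on cells seeded 24 h earlier at 5000/well; EC50 derived.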
row,SMILES,IC50 or EC50 (agonist or antagonist mode not specified) [nM]
1,"COCCn1ccc2c(-c3c(F)cc4c(c3OC)-n3c(C)nnc3C(C)(C)N4)cccc21 [Example 281, 7-Fluoro-9-methoxy-8-[1-(2-methoxy-ethyl)-1H-indol-4-yl]-1,4,4-trimethyl-5H-[1,2,4]triazolo[4,3-a]quinoxaline]",100 to 1000
2,"Cc1nnc2n1-c1c(cc(F)c(-c3cccc4c3ccn4C)c1C(F)F)NC2(C)C [Example 481, 9-(Difluoro-methyl)-7-fluoro-1,4,4-trimethyl-8-(1-methyl-1H-indol-4-yl)-5H-[1,2,4]triazolo[4,3-a] quinoxaline]",100 to 1000
3,"Cc1nnc2n1-c1c(cc(Cl)c(-c3cc(F)cc4c3cnn4CC(F)F)c1F)NC2(C)C [Example 508, 7-Chloro-8-[1-(2,2-difluoro-ethyl)-6-fluoro-1H-indazol-4-yl]-9-fluoro-1,4,4-trimethyl-5H-[1,2,4] triazolo[4,3-a]quinoxaline]",100 to 1000
4,"COCCn1ccc2c(-c3c(F)cc4c(c3C(F)F)-n3c(C)nnc3C(C)(C)N4)cc(F)cc21 [Example 402, 9-(Difluoro-methyl)-7-fluoro-8-[6-fluoro-1-(2-methoxy-ethyl)-1H-indol-4-yl]-1,4,4-trimethyl-5H-[1,2,4]triazolo[4,3-a]quinoxaline]",100 to 1000
5,"Cc1c(-c2cc(F)cc3c2ccn3S(C)(=O)=O)c(Cl)cc2c1-n1c(C)nnc1C(C)(C)N2 [Example 333, 7-Chloro-8-(6-fluoro-1-methylsulfonyl-1H-indol-4-yl)-1,4,4,9-tetramethyl-5H-[1,2,4] triazolo[4,3-a]quinoxaline]",< 100
6,"Cc1c(-c2cccc3c2ccn3S(C)(=O)=O)ccc2c1-n1c(C)nnc1C(C)(C)N2 [Example 450, 1,4,4,9-tetramethyl-8-(1-(methylsulfonyl)-1H-indol-4-yl)-4,5-dihydro-[1,2,4]triazolo[4,3-a]quinoxaline]",100 to 1000
7,"Cc1nnc2n1-c1c(cc(OC(F)F)c(-c3cccc4[nH]ccc34)c1F)NC2(C)C [Example 297, 7-(Difluoro-methoxy)-9-fluoro-8-(1H-indol-4-yl)-1,4,4-trimethyl-5H-[1,2,4]triazolo[4,3-a]quinoxaline]",1000 to 15000
8,"COc1c(-c2cccc3c2ccn3CC(F)F)c(F)cc2c1-n1c(C)nnc1C(C)(C)N2 [Example 397, 8-[1-(2,2-Difluoro-ethyl)-1H-indol-4-yl]-7-fluoro-9-methoxy-1,4,4-trimethyl-5H-[1,2,4]triazolo[4,3-a]quinoxaline]",100 to 1000
9,"Cc1nnc2n1-c1c(cc(OC(F)F)c(-c3cccc4c3ccn4CC(F)F)c1F)NC2(C)C [Example 393, 8-[1-(2,2-Difluoro-ethyl)-1H-indol-4-yl]-7-(difluoro-methoxy)-9-fluoro-1,4,4-trimethyl-5H-[1,2,4]triazolo [4,3-a]quinoxaline]",1000 to 15000
10,"COCCn1ccc2c(-c3c(OC(F)F)cc4c(c3C)-n3c(C)nnc3C(C)(C)N4)cccc21 [Example 336, 7-(Difluoro-methoxy)-8-[1-(2-methoxy-ethyl)-1H-indol-4-yl]-1,4,4,9-tetramethyl-5H-[1,2,4]triazolo[4,3-a]quinoxaline]",1000 to 15000
11,"COc1cc2c(c(F)c1-c1cc(F)cc3c1ccn3S(C)(=O)=O)-n1c(C)nnc1C(C)(C)N2 [Example 255, 9-Fluoro-8-(6-fluoro-1-methylsulfonyl-1H-indol-4-yl)-7-methoxy-1,4,4-trimethyl-5H-[1,2,4]triazolo[4,3-a]quinoxaline]",1000 to 15000
12,"Cc1c(-c2cc(C(F)(F)F)cc3[nH]ccc23)c(Cl)cc2c1-n1c(C)nnc1C(C)(C)N2 [Example 475, 7-Chloro-1,4,4,9-tetramethyl-8-[6-(trifluoromethyl)-1H-indol-4-yl]-5H-[1,2,4]triazolo[4,3-a]quinoxaline]",100 to 1000
13,"Cc1cc2c(c(F)c1-c1cccc3c1ccn3S(C)(=O)=O)-n1c(C)nnc1C(C)(C)N2 [Example 321, 9-Fluoro-1,4,4,7-tetramethyl-8-(1-methylsulfonyl-1H-indol-4-yl)-5H-[1,2,4]triazolo[4,3-a]quinoxaline]",1000 to 15000
14,"Cc1n[nH]c2c(-c3c(F)cc4c(c3F)-n3c(C)nnc3C(C)(C)N4)cccc12 [Example 354, 7,9-Difluoro-1,4,4-trimethyl-8-(3-methyl-1H-indazol-7-yl)-5H-[1,2,4]triazolo[4,3-a]quinoxaline]",100 to 1000
15,"CCS(=O)(=O)n1ccc2c(-c3c(F)cc4c(c3C)-n3c(C)nnc3C(C)(C)N4)cccc21 [Example 372, 8-[1-(Ethylsulfonyl)-1H-indol-4-yl]-7-fluoro-1,4,4,9-tetramethyl-5H-[1,2,4]triazolo[4,3-a]quinoxaline]",< 100
16,"Cc1nnc2n1-c1c(cc(OC(F)F)c(-c3cccc4[nH]c(C(F)(F)F)cc34)c1F)NC2(C)C [Example 252, 7-(Difluoro-methoxy)-9-fluoro-1,4,4-trimethyl-8-[2-(trifluoromethyl)-1H-indol-4-yl]-5H-[1,2,4]triazolo[4,3-a]quinoxaline]",100 to 1000
17,"Cc1c(-c2cccc3[nH]ncc23)c(F)cc2c1-n1c(C)nnc1C(C)(C)N2 [Example 510, 7-Fluoro-8-(1H-indaxol-4-yl)-1,4,4,9-tetramethyl-5H-[1,2,4] triazolo[4,3-a]quinoxaline]",100 to 1000
18,"COc1c(-c2cc(F)cc3c(C4CC4)c[nH]c23)c(F)cc2c1-n1c(C)nnc1C(C)(C)N2 [Example 483, 8-(3-Cyclopropyl-5-fluoro-1H-indol-7-yl)-7-fluoro-9-methoxy-1,4,4-trimethyl-5H-[1,2,4]triazolo[4,3-a] quinoxaline]",< 100
19,"COc1cc2c(c(F)c1-c1cccc3c1ccn3S(C)(=O)=O)-n1c(C)nnc1C(C)(C)N2 [Example 263, 9-Fluoro-7-methoxy-1,4,4-trimethyl-8-(1-methylsulfonyl-1H-indol-4-yl)-5H-[1,2,4]triazolo[4,3-a]quinoxaline]",1000 to 15000
20,"Cc1nnc2n1-c1c(cc(F)c(-c3cccc4c3ccn4C(=O)CN(C)C)c1F)NC2(C)C [Example 223, 1-[4-(7,9-Difluoro-1,4,4-trimethyl-5H-[1,2,4]triazolo[4,3-a]quinoxalin-8-yl)-1H-indol-1-yl]-2-dimethylamino-ethanone]",< 100
21,"COCCn1ccc2c(-c3c(F)cc4c(c3C(F)F)-n3c(C)nnc3C(C)(C)N4)cccc21 [Example 292, 9-(Difluoro-methyl)-7-fluoro-8-[1-(2-methoxy-ethyl)-1H-indol-4-yl]-1,4,4-trimethyl-5H-[1,2,4]triazolo[4,3-a]quinoxaline]",100 to 1000
22,"COc1c(-c2cccc3c2ccn3C)c(F)cc2c1-n1c(C)nnc1C(C)(C)N2 [Example 487, 7-Fluoro-9-methoxy-1,4,4-trimethyl-8-(1-methyl-1H-indol-4-yl)-5H-[1,2,4]triazolo[4,3-a] quinoxaline]",100 to 1000
23,"Cc1nnc2n1-c1c(cc(F)c(-c3cccc4c3cc(C(F)(F)F)n4S(C)(=O)=O)c1F)NC2(C)C [Example 271, 7,9-Difluoro-1,4,4-trimethyl-8-[1-methylsulfonyl-2-(trifluoromethyl)-1H-indol-4-yl]-5H-[1,2,4]triazolo [4,3-a]quinoxaline]",1000 to 15000
24,"Cc1cc2c(c(C)c1-c1cccc3c1ccn3S(C)(=O)=O)-n1c(C)nnc1C(C)(C)N2 [Example 309, 1,4,4,7,9-Pentamethyl-8-(1-methylsulfonyl-1H-indol-4-yl)-5H-[1,2,4]triazolo[4,3-a]quinoxaline]",< 100
25,"Cc1ccc(-c2c(F)cc3c(c2C(F)F)-n2c(C)nnc2C(C)(C)N3)c2ccn(S(C)(=O)=O)c12 [Example 512, 9-(Difluoro-methyl)-7-fluoro-1,4,4-trimethyl-8-(7-methyl-1-methylsulfonyl-1H-indol-4-yl)-5H-[1,2,4]triazolo[4,3-a]quinoxaline]",1000 to 15000
26,"Cc1c(-c2cc(F)cc3c2cnn3S(C)(=O)=O)c(Cl)cc2c1-n1c(C)nnc1C(C)(C)N2 [Example 347, 7-Chloro-8-(6-fluoro-1-methylsulfonyl-1H-indazol-4-yl)-1,4,4,9-tetramethyl-5H-[1,2,4]triazolo[4,3-a]quinoxaline]",100 to 1000
27,"Cc1nnc2n1-c1c(cc(F)c(-c3cccc4c(C5CC5)c[nH]c34)c1Cl)NC2(C)C [Example 85, 9-Chloro-8-(3-cyclopropyl-1H-indol-7-yl)-7-fluoro-1,4,4-trimethyl-5H-[1,2,4]triazolo[4,3-a]quinoxaline]",100 to 1000
28,"Cc1c(-c2cc(C#N)cc3[nH]ccc23)c(F)cc2c1-n1c(C)nnc1C(C)(C)N2 [Example 494, 4-(7-Fluoro-1,4,4,9-tetramethyl-5H-[1,2,4]triazolo[4,3-a]quinoxalin-8-yl)-1H-indole-6-carbonitrile]",100 to 1000
29,"Cc1c[nH]c2c(-c3c(F)cc4c(c3F)-n3c(Cc5ccccc5)nnc3C(C)(C)N4)cccc12 [Example 68, 1-Benzyl-7,9-difluoro-4,4-dimethyl-8-(3-methyl-1H-indol-7-yl)-5H-[1,2,4]triazolo[4,3-a]quinoxaline]",100 to 1000
